From patent publication US11174268B2, “Benzenesulfonamide compouds and their use as therapeutic agents” (Xenon Pharmaceuticals Inc., priority 2016, dated 2021) come the findings set out here.

Counter-ions that a name gives are not always drawn. Like-named read-outs stand apart in the source and are kept apart here.

The target in one data set is NaV1.6 (Homo sapiens (Human), UniProt Q9UQD0). Kind of data set: Sodium Influx Assay (Flux), NaV1.6.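 Further: Tetracycline-induced cells, compounds applied for one hour at room temperature with modulators holding channels open, IC50 from percent inhibition of sodium influx.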 The data set is classed as cell-based. The following applies: Trex HEK293 cells, ANG2 dye, inactivated state.
For the next data set, the target named is NaV1.5 (Homo sapiens (Human), UniProt Q14524). As to the kind of experiment: Sodium Influx Assay (Flux), NaV1.5.
The target in another data set is NaV1.1 (Homo sapiens (Human), UniProt P35498). Kind of data set: Sodium Influx Assay (Flux), NaV1.1.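 Further: channels co-expressed with human β1 subunit and held open by modulators, cells exposed to compounds for one hour at room temperature, IC50 from percent inhibition of influx.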 The data set is classed as cell-based. Particulars: Trex HEK293 cells, ANG2 dye, inactivated state.
The mark [1] stands for this setting: read-out: Flux NaV1.5 IC50, Trex HEK293 cells, ANG2 dye, inactivated state.

The IC50 is the concentration needed to halve the response being measured.

Chain of NaV1.5 (Q14524 other isoform, or with tags, fused parts or gaps): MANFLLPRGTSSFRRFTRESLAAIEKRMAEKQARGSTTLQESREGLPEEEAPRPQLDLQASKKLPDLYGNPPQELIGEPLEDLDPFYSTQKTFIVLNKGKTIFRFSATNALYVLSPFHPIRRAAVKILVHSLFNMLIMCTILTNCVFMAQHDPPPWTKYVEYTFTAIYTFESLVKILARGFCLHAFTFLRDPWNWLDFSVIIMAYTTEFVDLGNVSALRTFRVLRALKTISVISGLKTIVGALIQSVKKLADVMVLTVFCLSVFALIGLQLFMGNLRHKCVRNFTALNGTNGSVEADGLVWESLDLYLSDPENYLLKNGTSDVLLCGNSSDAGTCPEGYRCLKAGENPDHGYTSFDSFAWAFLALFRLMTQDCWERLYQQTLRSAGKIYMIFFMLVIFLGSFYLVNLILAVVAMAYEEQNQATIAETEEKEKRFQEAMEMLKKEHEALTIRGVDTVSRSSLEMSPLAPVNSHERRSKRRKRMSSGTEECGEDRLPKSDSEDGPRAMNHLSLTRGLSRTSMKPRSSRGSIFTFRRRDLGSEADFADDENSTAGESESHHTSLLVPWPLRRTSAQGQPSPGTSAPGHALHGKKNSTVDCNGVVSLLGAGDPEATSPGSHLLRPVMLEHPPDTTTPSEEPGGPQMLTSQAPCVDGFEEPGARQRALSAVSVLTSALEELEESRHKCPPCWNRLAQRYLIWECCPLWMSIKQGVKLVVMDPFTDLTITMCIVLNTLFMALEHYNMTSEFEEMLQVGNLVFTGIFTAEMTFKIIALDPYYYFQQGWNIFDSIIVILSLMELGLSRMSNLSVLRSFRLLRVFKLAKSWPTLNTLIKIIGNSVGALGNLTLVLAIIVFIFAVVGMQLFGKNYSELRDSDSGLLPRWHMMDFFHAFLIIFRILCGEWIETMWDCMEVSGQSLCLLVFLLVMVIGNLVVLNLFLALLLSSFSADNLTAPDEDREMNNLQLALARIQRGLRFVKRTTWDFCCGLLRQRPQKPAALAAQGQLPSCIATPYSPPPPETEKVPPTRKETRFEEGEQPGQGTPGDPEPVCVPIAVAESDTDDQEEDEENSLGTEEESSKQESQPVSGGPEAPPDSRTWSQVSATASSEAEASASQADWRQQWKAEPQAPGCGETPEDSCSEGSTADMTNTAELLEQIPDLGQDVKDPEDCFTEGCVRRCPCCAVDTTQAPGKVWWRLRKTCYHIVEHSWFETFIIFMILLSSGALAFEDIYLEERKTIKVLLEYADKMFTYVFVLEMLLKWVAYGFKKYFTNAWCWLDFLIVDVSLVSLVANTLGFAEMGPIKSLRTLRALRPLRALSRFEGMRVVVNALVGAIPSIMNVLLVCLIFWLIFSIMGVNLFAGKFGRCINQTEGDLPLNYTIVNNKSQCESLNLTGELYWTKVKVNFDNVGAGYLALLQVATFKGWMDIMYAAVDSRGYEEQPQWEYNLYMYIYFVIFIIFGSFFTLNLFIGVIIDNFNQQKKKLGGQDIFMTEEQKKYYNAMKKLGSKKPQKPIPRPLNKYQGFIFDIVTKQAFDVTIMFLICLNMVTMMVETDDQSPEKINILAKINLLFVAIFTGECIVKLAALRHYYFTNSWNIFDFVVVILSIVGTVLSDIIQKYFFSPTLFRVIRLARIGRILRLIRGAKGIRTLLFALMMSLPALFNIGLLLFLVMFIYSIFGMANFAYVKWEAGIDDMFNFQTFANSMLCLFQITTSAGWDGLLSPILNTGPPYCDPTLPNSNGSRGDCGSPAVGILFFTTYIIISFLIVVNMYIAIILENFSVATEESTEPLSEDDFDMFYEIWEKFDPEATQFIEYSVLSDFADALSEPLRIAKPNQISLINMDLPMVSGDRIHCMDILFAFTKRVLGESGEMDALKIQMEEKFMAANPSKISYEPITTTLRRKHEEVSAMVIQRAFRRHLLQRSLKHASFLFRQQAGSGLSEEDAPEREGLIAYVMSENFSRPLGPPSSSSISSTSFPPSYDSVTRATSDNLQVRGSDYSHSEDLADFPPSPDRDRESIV

In the case of “2,6-difluoro-4-((2-fluoro-6-((3-hydroxy-3-methylazetidin-1-yl)methyl)benzyl)amino)-N-(thiazol-4-yl)benzenesulfonamide formate [Example 169]”, the IC50 against NaV1.6 was 0.011 µM; on NaV1.5 (setting [1]) it was 29 µM; against NaV1.1, 6.38 µM.
As to “4-((2-((3-(difluoromethyl)azetidin-1-yl)methyl)-6-fluorobenzyl)amino)-2,6-difluoro-N-(thiazol-4-yl)benzenesulfonamide formate [Example 168]”, the IC50 was 0.12 µM against NaV1.6, 21.7 µM on NaV1.5 (setting [1]) and 17.7 µM against NaV1.1.
With `C[C@@H](Oc1ccc(S(=O)(=O)Nc2ncns2)cc1Cl)c1ccccc1` (racemic) [Example 87, (R) and (S)-3-chloro-4-(1-phenylethoxy)-N-(1,2,4-thiadiazol-5-yl)benzenesulfonamide], the figures for the IC50 on NaV1.6, at NaV1.5 and on NaV1.1 were 8.6 µM, 24.7 µM and at least 30 µM, respectively.
Turning to `CC[C@H](Nc1cc(F)c(S(=O)(=O)Nc2nccs2)cc1Br)c1ccccc1` [Example 1, (S)-5-bromo-2-fluoro-4-((1-phenylpropyl)amino)-N-(thiazol-2-yl)benzenesulfonamide], the IC50 came out at 0.12 µM on NaV1.6, 8.92 µM on NaV1.5 (setting [1]) and 0.784 µM against NaV1.1.
For `C[C@H](Nc1cc(F)c(S(=O)(=O)Nc2nccs2)cc1Cl)c1cccc2ccccc12` [Example 2, (S)-5-chloro-2-fluoro-4-((1-(naphthalen-1-yl)ethyl)amino)-N-(thiazol-2-yl)benzenesulfonamide], the IC50 was 5.02 µM against NaV1.6, 8.25 µM on NaV1.5 (setting [1]) and 16 µM against NaV1.1.
Take `C[C@H](Nc1cc(F)c(S(=O)(=O)Nc2nccs2)cc1Cl)c1cccc(C(F)(F)F)c1` [Example 3, (S)-5-chloro-2-fluoro-N-(thiazol-2-yl)-4-((1-(3-(trifluoromethyl)phenyl)ethyl)amino)benzenesulfonamide]: the results for the IC50 on NaV1.6, on NaV1.5 (setting [1]) and against NaV1.1 were 0.679 µM, 5.25 µM and 3.38 µM, respectively.
Regarding `C[C@H](Nc1cc(F)c(S(=O)(=O)Nc2cscn2)cc1Cl)c1cccc(Cl)c1F` [Example 6, (S)-5-chloro-4-((1-(3-chloro-2-fluorophenyl)ethyl)amino)-2-fluoro-N-(thiazol-4-yl)benzenesulfonamide], the IC50 was found to be 3.38 µM at NaV1.6, 5.52 µM on NaV1.5 (setting [1]) and 3.76 µM on NaV1.1.
Turning to `C[C@H](Nc1cc(F)c(S(=O)(=O)Nc2nccs2)cc1Cl)c1cccc(Br)c1` [Example 7, (S)-4-((1-(3-bromophenyl)ethyl)amino)-5-chloro-2-fluoro-N-(thiazol-2-yl)benzenesulfonamide], the IC50 against NaV1.6 was determined as 0.376 µM; at NaV1.5 (setting [1]), 9.68 µM; against NaV1.1 it was 3 µM.
As for `C[C@H](Nc1cc(F)c(S(=O)(=O)Nc2nccs2)cc1Cl)c1ccc(Cl)cc1` [Example 14, (S)-5-chloro-4-((1-(4-chlorophenyl)ethyl)amino)-2-fluoro-N-(thiazol-2-yl)benzenesulfonamide], the IC50 was 1.79 µM against NaV1.6, 14.4 µM on NaV1.5 (setting [1]) and 4.65 µM against NaV1.1.
The corresponding values for `C[C@H](Nc1cc(F)c(S(=O)(=O)Nc2nccs2)cc1Cl)c1ccc2ccccc2c1` [Example 15, (S)-5-chloro-2-fluoro-4-((1-(naphthalen-2-yl)ethyl)amino)-N-(thiazol-2-yl)benzenesulfonamide] are 7.15 µM, 23.6 µM and 9.41 µM.
`N#Cc1ccccc1CNc1cc(F)c(S(=O)(=O)Nc2nccs2)cc1Cl` [Example 17, 5-chloro-4-((2-cyanobenzyl)amino)-2-fluoro-N-(thiazol-2-yl)benzenesulfonamide]: the IC50 against NaV1.6 was 0.308 µM; on NaV1.5 (setting [1]), 8.46 µM; on NaV1.1 it was 0.494 µM.
Take `O=S(=O)(Nc1cscn1)c1cc(Cl)c(NC2(c3ccccc3)CCC2)cc1F` [Example 18, 5-chloro-2-fluoro-4-((1-phenylcyclobutyl)amino)-N-(thiazol-4-yl)benzenesulfonamide]: the values for the IC50 on NaV1.6, at NaV1.5 (setting [1]) and on NaV1.1 were 3.35 µM, 11.9 µM and 8.37 µM, respectively.
The corresponding values for `C[C@H](Nc1c(Cl)cc(S(=O)(=O)Nc2nccs2)cc1Cl)c1ccccc1F` [Example 21, (S)-3,5-dichloro-4-((1-(2-fluorophenyl)ethyl)amino)-N-(thiazol-2-yl)benzenesulfonamide] are 3.67 µM, 2.89 µM and 3.63 µM.
The matching figures for `C[C@H](Nc1cc(F)c(S(=O)(=O)Nc2cccc(F)n2)cc1Cl)c1ccccc1Cl` [Example 23, (S)-5-chloro-4-((1-(2-chlorophenyl)ethyl)amino)-2-fluoro-N-(6-fluoropyridin-2-yl)benzenesulfonamide]: 1.52 µM, 4.09 µM and 5.4 µM.
Consider `C[C@H](Nc1ccc(S(=O)(=O)Nc2cscn2)cc1Cl)c1ccccc1` [Example 24, (S)-3-chloro-4-((1-phenylethyl)amino)-N-(thiazol-4-yl)benzenesulfonamide], for which the IC50 was determined as 4.09 µM against NaV1.6, 8.32 µM at NaV1.5 (setting [1]) and 5.85 µM on NaV1.1.
On to `O=S(=O)(Nc1cscn1)c1cc(Cl)c(OC2CCc3c2cccc3C(F)(F)F)cc1F` (stereo not drawn) [Example 29, 5-chloro-2-fluoro-N-(thiazol-4-yl)-4-((4-(trifluoromethyl)-2,3-dihydro-1H-inden-1-yl)oxy)benzenesulfonamide], for which the concentration for half-maximal inhibition (IC50) is 30 µM against NaV1.6, 24.6 µM on NaV1.5 (setting [1]) and 30 µM against NaV1.1.
Turning to `O=S(=O)(Nc1ncns1)c1ccc(NCc2ccccc2)c(Cl)c1` [Example 33, 4-(Benzylamino)-3-chloro-N-(1,2,4-thiadiazol-5-yl)benzenesulfonamide], the figures for the concentration for half-maximal inhibition (IC50) against NaV1.6, at NaV1.5 (setting [1]) and at NaV1.1 were 0.462 µM, 25.8 µM and 2.99 µM, respectively.
Consider `CC(CNc1ccc(S(=O)(=O)Nc2ncns2)cc1Cl)c1ccccc1` (stereo not drawn) [Example 34, 3-chloro-4-((2-phenylpropyl)amino)-N-(1,2,4-thiadiazol-5-yl)benzenesulfonamide], for which the IC50 on NaV1.6 came to 1.27 µM; at NaV1.5 (setting [1]), 4.91 µM; against NaV1.1, 0.84 µM.
The corresponding values for `O=S(=O)(Nc1ncns1)c1ccc(N[C@@H]2CCc3ccccc32)c(Cl)c1` [Example 35, (R)-3-chloro-4-((2,3-dihydro-1H-inden-1-yl)amino)-N-(1,2,4-thiadiazol-5-yl)benzenesulfonamide] are 0.839 µM, 8.69 µM and 0.301 µM.
The matching figures for `O=S(=O)(Nc1ncns1)c1ccc(N[C@H]2CCc3ccccc32)c(Cl)c1` [Example 36, (S)-3-chloro-4-((2,3-dihydro-1H-inden-1-yl)amino)-N-(1,2,4-thiadiazol-5-yl)benzenesulfonamide]: 1.4 µM, 5.12 µM and 1.34 µM.
With `O=S(=O)(Nc1nccs1)c1cc(Cl)c(N[C@H]2CCCc3ccccc32)cc1F` [Example 46, (S)-5-chloro-2-fluoro-4-((1,2,3,4-tetrahydronaphthalen-1-yl)amino)-N-(thiazol-2-yl)benzenesulfonamide], the IC50 at NaV1.6 stood at 1.66 µM; on NaV1.5 (setting [1]), 7.04 µM; against NaV1.1, 0.999 µM.
Regarding `C[C@H](Nc1cc(F)c(S(=O)(=O)Nc2nccs2)cc1Cl)c1cccc(Cl)c1` [Example 50, (S)-5-chloro-4-((1-(3-chlorophenyl)ethyl)amino)-2-fluoro-N-(thiazol-2-yl)benzenesulfonamide], the half-maximal inhibitory concentration (IC50) came out at 0.169 µM on NaV1.6, 6.07 µM at NaV1.5 (setting [1]) and 1.28 µM against NaV1.1.
`C[C@H](Nc1cc(F)c(S(=O)(=O)Nc2nccs2)cc1Cl)c1cc(Cl)cc(Cl)c1` [Example 51, (S)-5-chloro-4-((1-(3,5-dichlorophenyl)ethyl)amino)-2-fluoro-N-(thiazol-2-yl)benzenesulfonamide]: the half-maximal inhibitory concentration (IC50) stood at 10.8 µM against NaV1.6, 20.6 µM on NaV1.5 (setting [1]) and 4.27 µM on NaV1.1.
Regarding `O=S(=O)(Nc1cscn1)c1c(F)cc(NCc2c(F)cccc2CN2CC3(COC3)C2)cc1F` [Example 153, 4-((2-((2-oxa-6-azaspiro[3.3]heptan-6-yl)methyl)-6-fluorobenzyl)amino)-2,6-difluoro-N-(thiazol-4-yl)benzenesulfonamide formate], at NaV1.5 (setting [1]), the IC50 amounted to 30 µM.
Consider `O=S(=O)(Nc1cscn1)c1c(F)cc(NCc2c(F)cccc2CN2CCCC2)cc1F` [Example 166, 2,6-difluoro-4-((2-fluoro-6-(pyrrolidin-1-ylmethyl)benzyl)amino)-N-(thiazol-4-yl)benzenesulfonamide formate], for which the IC50 at NaV1.5 (setting [1]) was determined as 15.2 µM.
As to `COC1CN(Cc2cccc(F)c2CNc2cc(F)c(S(=O)(=O)Nc3cscn3)c(F)c2)C1` [Example 171, 2,6-difluoro-4-((2-fluoro-6-((3-methoxyazetidin-1-yl)methyl)benzyl)amino)-N-(thiazol-4-yl)benzenesulfonamide formate], at NaV1.5 (setting [1]), the IC50 stood at 16.8 µM.
The compound `COc1ccc(F)c([C@H](C)Nc2cc(F)c(S(=O)(=O)Nc3cscn3)c(F)c2)c1` [Example 238, (S)-2,6-difluoro-4-((1-(2-fluoro-5-methoxyphenyl)ethyl)amino)-N-(thiazol-4-yl)benzenesulfonamide] showed a 50% inhibitory concentration (IC50) on NaV1.1 of 6.45 µM.
Take `C[C@H](Nc1ccc(S(=O)(=O)Nc2cscn2)cc1C(F)(F)F)c1cc(F)ccc1F` [Example 274, (S)-4-((1-(2,5-difluorophenyl)ethyl)amino)-N-(thiazol-4-yl)-3-(trifluoromethyl)benzenesulfonamide]: the IC50 on NaV1.5 (setting [1]) is 4.6 µM.
As for `CCc1cc(S(=O)(=O)Nc2cscn2)c(F)cc1N[C@@H](C)c1cc(F)ccc1F` [Example 297, (S)-4-((1-(2,5-difluorophenyl)ethyl)amino)-5-ethyl-2-fluoro-N-(thiazol-4-yl)benzenesulfonamide], on NaV1.5 (setting [1]), the IC50 is 8.63 µM.
